Consider seven compounds from patent publication US11584726B2 (Beijing Foreland Pharma Co., Ltd., priority 2017, dated 2023).

Where only a bound is given, the exact number is not on record here.

In assay [1] the test system is CD8 on peripheral blood cell. Put plainly: Effects on the expression of CD8 on peripheral blood cell in mice (flow cytometry). Format: in vivo, mice (C57 BL/6). Conditions: intragastric, once a day for four days, mouse peripheral blood. How it is done: (§1) FITC Rat Anti-Mouse CD8a: BD, Cat. #553030.
(§2) PE Rat Anti-Mouse CD4: BD, Cat. #557308.
(§3) APC Rat Anti-Mouse CD19: BD, Cat. #561738.
(§4) The compounds used in the test were prepared by the chemical department of Beijing Forelandpharma Co. Ltd.
(§5) Routs of administration: intragastric administration, once a day, and continuous administration for four days.
(§6) After the administration, supraorbital venous blood was collected from the mouse, added to an EP tube (1.5 ml) containing an anticoagulant, and kept on the ice. The resulting mixture was transferred to a test tube, centrifuged at 4° C. and 1200 rpm/min for 5 min, removed with the supernatant liquid, added with a lysate, processed with cell lysis on the ice for 5 min, then pre-dyed, added with diluted antibody, and incubated away from light for 30 min. After the incubation, the resulting mixture was washed, removed with the supernatant liquid, added with stationary liquid, and kept in a refrigerator at 4° C. away from light for the test of flow cytometry.
In general terms: In flow cytometry, cells or beads pass a laser one at a time.

Assay [2] concerns CD4 on peripheral blood cell. The experiment in a line: Effects on the expression of CD4 on peripheral blood cell in mice (flow cytometry). The assay is classed as in vivo, mice (C57 BL/6). Conditions: intragastric, once a day for four days, mouse peripheral blood. The procedure:
as §1, §2, §3, §4, §5, §6

In assay [3] the test system is CD19 on peripheral blood cell. Put plainly: Effects on the expression of CD19 on peripheral blood cell in mice (flow cytometry). The assay is classed as in vivo, mice (C57 BL/6). As to conditions: intragastric, once a day for four days, mouse peripheral blood. How it is done: as §1, §2, §3, §4, §5, §6
For the next assay, the target named is S1P3 (Homo sapiens (Human), UniProt Q99500). The experiment in a line: PathHunter β-arrestin test S1P3. The assay is classed as cell-based. As to conditions: PathHunter β-arrestin engineering cells. How it is done: (§7) 1. PathHunter β-arrestin testing system was used to detect the biological activity of the compounds.
(§8) 2. β-arrestin engineering cells were cultured on […] culture plates and placed in an incubator at 37° C.
(§9) 3. The sample to be tested was diluted with reaction solution in 5-fold dilution.
(§10) 4. The diluted sample to be tested was added to the engineering cells and the reaction was induced and observed.
(§11) 5. The chemiluminescence signal produced in the test may be detected by multifunctional enzyme marker (PerkinElmer Envision™).
(§12) Test Analysis and Results
(§13) 6. The data obtained was analyzed using the data analysis software of CBIS (ChemInnovation, CA) to achieve EC50, and the test results are shown in Table 2.

A further assay has as its target S1P5 (Homo sapiens (Human), UniProt Q9H228). The experiment in a line: Fluorescence detection FLIPR assay, activation of GPCR (S1P5). Format: cell-based. As to conditions: total detection time 180 s, read-out: FLIPR Test EC50 S1P5. The procedure:
The sample to be tested was dissolved in DMSO and diluted with detection buffer solution in 3-fold dilution. A reagent and a positive control were diluted in the same way.
The reactions of the agonist, the reagent and the positive control were detected by a device of […] with a total detection time of 180 s to estimate the ability to activate GPCR (S1P5) of each compound.

The next assay addresses S1P2 (Homo sapiens (Human), UniProt O95136). Put plainly: PathHunter β-arrestin test S1P2. As to conditions: PathHunter β-arrestin engineering cells. The assay is classed as cell-based. How it is done: as §7, §8, §9, §10, §11, §12, §13
The target of the next assay is S1P4 (Homo sapiens (Human), UniProt O95977). The experiment in a line: PathHunter β-arrestin test S1P4. The assay is classed as cell-based. As to conditions: PathHunter β-arrestin engineering cells. How it is done: as §7, §8, §9, §10, §11, §12, §13
For the next assay, the target named is S1P1 (Homo sapiens (Human), UniProt P21453). Put plainly: PathHunter β-arrestin test S1P1. Conditions: PathHunter β-arrestin engineering cells. Format: cell-based. The procedure:
as §7, §8, §9, §10, §11, §12, §13

Sequence of S1P3 (Q99500 whole entry, species assumed): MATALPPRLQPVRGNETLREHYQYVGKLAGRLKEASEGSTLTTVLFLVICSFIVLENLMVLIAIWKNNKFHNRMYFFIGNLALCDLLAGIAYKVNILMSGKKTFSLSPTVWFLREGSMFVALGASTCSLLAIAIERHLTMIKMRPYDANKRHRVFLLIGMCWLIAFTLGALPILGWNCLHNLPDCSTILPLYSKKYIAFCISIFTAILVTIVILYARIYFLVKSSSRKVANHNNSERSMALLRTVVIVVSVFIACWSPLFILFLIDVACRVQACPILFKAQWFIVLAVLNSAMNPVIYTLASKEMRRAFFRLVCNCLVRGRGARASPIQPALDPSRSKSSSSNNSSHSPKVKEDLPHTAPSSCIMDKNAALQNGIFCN
Sequence of S1P2 (O95136 whole entry, species assumed): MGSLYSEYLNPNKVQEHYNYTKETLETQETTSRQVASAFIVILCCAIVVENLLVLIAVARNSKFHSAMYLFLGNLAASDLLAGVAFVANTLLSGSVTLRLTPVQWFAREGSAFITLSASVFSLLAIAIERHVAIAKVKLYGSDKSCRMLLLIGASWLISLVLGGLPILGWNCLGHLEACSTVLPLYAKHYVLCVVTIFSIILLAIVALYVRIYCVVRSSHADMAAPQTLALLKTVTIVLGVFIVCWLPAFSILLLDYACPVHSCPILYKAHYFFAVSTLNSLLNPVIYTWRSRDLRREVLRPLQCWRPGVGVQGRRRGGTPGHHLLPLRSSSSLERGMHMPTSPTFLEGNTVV
Sequence of S1P1 (P21453 whole entry, species assumed): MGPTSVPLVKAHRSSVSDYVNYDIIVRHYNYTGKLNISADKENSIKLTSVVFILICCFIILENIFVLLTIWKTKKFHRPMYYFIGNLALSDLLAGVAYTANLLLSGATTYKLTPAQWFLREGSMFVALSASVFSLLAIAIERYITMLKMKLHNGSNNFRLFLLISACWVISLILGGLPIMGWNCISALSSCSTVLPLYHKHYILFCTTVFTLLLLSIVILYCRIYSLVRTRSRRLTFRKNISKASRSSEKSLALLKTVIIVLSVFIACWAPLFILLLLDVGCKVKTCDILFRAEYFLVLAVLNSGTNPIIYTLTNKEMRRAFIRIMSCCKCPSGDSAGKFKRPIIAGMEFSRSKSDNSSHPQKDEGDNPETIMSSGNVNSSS
Sequence of S1P4 (O95977 whole entry, species assumed): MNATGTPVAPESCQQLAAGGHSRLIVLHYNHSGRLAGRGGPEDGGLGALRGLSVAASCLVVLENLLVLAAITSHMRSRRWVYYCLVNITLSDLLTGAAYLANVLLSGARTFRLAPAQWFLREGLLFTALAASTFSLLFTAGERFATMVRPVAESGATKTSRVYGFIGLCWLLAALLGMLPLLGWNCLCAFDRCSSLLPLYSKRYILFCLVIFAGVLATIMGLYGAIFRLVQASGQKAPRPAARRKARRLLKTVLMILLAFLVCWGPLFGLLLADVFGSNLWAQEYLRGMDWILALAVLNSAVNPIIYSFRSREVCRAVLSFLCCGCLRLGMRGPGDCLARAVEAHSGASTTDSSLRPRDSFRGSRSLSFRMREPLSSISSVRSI
Sequence of S1P5 (Q9H228 whole entry, species assumed): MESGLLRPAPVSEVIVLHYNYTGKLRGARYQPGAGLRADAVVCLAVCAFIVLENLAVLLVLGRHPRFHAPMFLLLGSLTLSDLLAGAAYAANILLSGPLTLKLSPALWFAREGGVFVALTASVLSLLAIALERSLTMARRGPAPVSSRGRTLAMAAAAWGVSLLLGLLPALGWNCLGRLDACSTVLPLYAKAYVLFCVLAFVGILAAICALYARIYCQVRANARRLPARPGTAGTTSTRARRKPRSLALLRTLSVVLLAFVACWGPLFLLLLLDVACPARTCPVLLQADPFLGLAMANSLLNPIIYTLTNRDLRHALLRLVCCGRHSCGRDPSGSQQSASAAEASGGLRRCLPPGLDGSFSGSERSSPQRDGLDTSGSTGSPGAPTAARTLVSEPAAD

Turning to `CC(C)Oc1ccc(-c2nnc(-c3ccc4c(c3)C[C@](N)(CO)CC4)o2)cc1F` [Example 1, (S)-(2-amino-7-(5-(3-fluoro-4-isopropoxyphenyl)-1,3,4-oxadiazol-2-yl)-1,2,3,4-tetrahydronaphthalen-2-yl)methanol], the “CD8 (%)” value in assay [1] (1 mg/kg) is recorded as 10.0%; in assay [1] (5 mg/kg) it was 1.8%. For the same compound, the “CD4 (%)” value is 10.9% in assay [2] (1 mg/kg) and 1.2% in assay [2] (5 mg/kg). In addition, the “CD19 (%)” value came out at 39.0% in assay [3] (1 mg/kg) and 17.5% in assay [3] (5 mg/kg).

`N[C@@]1(CO)CCc2ccc(-c3nnc(-c4ccc(F)c(F)c4)o3)cc2C1` [Example 7, (S)-(2-amino-7-(5-(3,4-difluorophenyl)-1,3,4-oxadiazol-2-yl)-1,2,3,4-tetrahydronaphthalen-2-yl)methanol]: the figures for the “CD8 (%)” value in assay [1] (1 mg/kg) and in assay [1] (5 mg/kg) were 14.5% and 9.2%, respectively. In addition, the figures for the “CD4 (%)” value in assay [2] (1 mg/kg) and in assay [2] (5 mg/kg) were 26.5% and 13.4%, respectively. Further, the “CD19 (%)” value is on record as 45.2% in assay [3] (1 mg/kg) and 40.6% in assay [3] (5 mg/kg).

Consider `N[C@@]1(CO)CCc2ccc(-c3nnc(-c4ccc5c(c4)OCO5)o3)cc2C1` [Example 2], for which the “CD8 (%)” value came out at 13.0% in assay [1] (1 mg/kg) and 8.6% in assay [1] (5 mg/kg). Also, the “CD4 (%)” value was determined as 23.1% in assay [2] (1 mg/kg) and 16.4% in assay [2] (5 mg/kg). In addition, the “CD19 (%)” value in assay [3] (1 mg/kg) is listed as 44.8%; in assay [3] (5 mg/kg), 35.2%.

As for `N[C@@]1(CO)CCc2ccc(-c3nnc(-c4cc(C(F)(F)F)cc(C(F)(F)F)c4)o3)cc2C1` [Example 12, (S)-(2-amino-7-(5-(3,5-bis(trifluoromethyl)phenyl)-1,3,4-oxadiazol-2-yl)-1,2,3,4-tetrahydronaphthalen-2-yl)methanol], the entries for the “CD8 (%)” value in assay [1] (1 mg/kg) and in assay [1] (5 mg/kg) were 9.6% and 3.4%, respectively. Moreover, the results for the “CD4 (%)” value in assay [2] (1 mg/kg) and in assay [2] (5 mg/kg) were 15.2% and 2.8%, respectively. The “CD19 (%)” value amounted to 53.2% in assay [3] (1 mg/kg) and 38.1% in assay [3] (5 mg/kg).

For `N[C@@]1(CO)CCc2ccc(-c3nnc(-c4ccc(C(F)(F)F)c(F)c4)o3)cc2C1` [Example 11, (S)-(2-amino-7-(5-(3-fluoro-4-(trifluoromethyl)phenyl)-1,3,4-oxadiazol-2-yl)-1,2,3,4-tetrahydronaphthalen-2-yl)methanol], the figures for the “CD8 (%)” value in assay [1] (1 mg/kg) and in assay [1] (5 mg/kg) were 14.9% and 13.8%, respectively. Further, the “CD4 (%)” value was found to be 23.5% in assay [2] (1 mg/kg) and 20.5% in assay [2] (5 mg/kg). Also, the “CD19 (%)” value in assay [3] (1 mg/kg) is given as 52.1%; in assay [3] (5 mg/kg), 54.0%.

Turning to `CCOc1ccc(-c2nnc(-c3ccc4c(c3)C[C@](N)(CO)CC4)o2)cc1OCC` [Example 13, (S)-(2-amino-7-(5-(3,4-diethoxyphenyl)-1,3,4-oxadiazol-2-yl)-1,2,3,4-tetrahydronaphthalen-2-yl)methanol], the concentration giving a half-maximal response (EC50) was 613 nM at S1P3; above 10000 nM at S1P5; above 100000 nM at S1P2; above 100000 nM at S1P4; 21.6 nM at S1P1. Moreover, the figures for the “CD8 (%)” value in assay [1] (1 mg/kg) and in assay [1] (5 mg/kg) were 12.7% and 9.4%, respectively. Also, the results for the “CD4 (%)” value in assay [2] (1 mg/kg) and in assay [2] (5 mg/kg) were 23.4% and 11.6%, respectively. Further, the results for the “CD19 (%)” value in assay [3] (1 mg/kg) and in assay [3] (5 mg/kg) were 56.8% and 53.8%, respectively.

On to `COc1ccc(-c2nnc(-c3ccc4c(c3)C[C@](N)(CO)CC4)o2)cc1C(F)(F)F` [Example 6, (S)-(2-amino-7-(5-(4-methoxy-3-(trifluoromethyl)phenyl)-1,3,4-oxadiazol-2-yl)-1,2,3,4-tetrahydronaphthalen-2-yl)methanol], for which the “CD8 (%)” value came to 17.0% in assay [1] (1 mg/kg) and 5.7% in assay [1] (5 mg/kg). For the same compound, the “CD4 (%)” value in assay [2] (1 mg/kg) was found to be 17.8%; in assay [2] (5 mg/kg), 8.7%. Further, the results for the “CD19 (%)” value in assay [3] (1 mg/kg) and in assay [3] (5 mg/kg) were 34.0% and 29.1%, respectively.

Usually EC50 stands for the midpoint of the concentration-response curve.
